Measurements: patent US12220461B2, “Polypeptide-coupled small molecule compound and antiviral application thereof” (Guangzhou Medical University, priority 2023, dated 2025)
Starred links: 1 amine or outer side, 2 acyl side, 3 side chain; linkers in the order of their positions; H or OH if unused. Non-standard residues stand in square brackets, D forms with d. Residues, ends and D or L forms follow the SMILES beside them. ξ: configuration not given here. *: point of attachment. X1 = Cc1ccc(N[*:1])cc1C(=O)[*:2]; X2 = C[C@@H](N*)c1cccc2ccccc12; ξR = N=C(N)NCCCC(N)C(=O)O; ξL = CC(C)CC(N)C(=O)O; ξS = NC(CO)C(=O)O

System: Omicron BA5.2 variant of SARS-CoV-2
Format: cell-based

**Q.** For `Cc1ccc(NC(=O)CNC(=O)CNC(=O)C(CCCNC(=N)N)NC(=O)C(CC(C)C)NC(=O)C(CCCNC(=N)N)NC(=O)C(N)CO)cc1C(=O)N[C@H](C)c1cccc2ccccc12` (stereo partly shown) [RG-17] (H-[ξS][ξR][ξL][ξR]GG[X1]-X2), which “IC50 for inhibition of replication of the SARS-CoV-2 genome (qPCR)” value is on record?
**A.** The value was “lower than GRL0617”.
